This note sets out measurements from patent publication US5886011A, “Piperidine derivatives as substance P antagonists” (Hisamitsu Pharmaceutical Co., Inc., priority 1995, dated 1999).

The structures appear in SMILES notation. Where a name gives a salt, the structure may show the parent alone. Read-outs that look alike come from different tables or passages of the source.

The target in assay [1] is T1, Substance P receptor (guinea pig ileum longitudinal muscle) (Cavia porcellus, UniProt P30547).
T1 construct: ileum was removed and the longitudinal muscle was stripped off; from tissue; host or cells: guinea pig ileum longitudinal muscle, washed membrane pellets
The assay is described as follows: Receptor-binding test ([125I]SP ligand, guinea pig ileum longitudinal muscle receptor samples). The following applies: 10^-8 M compound; [125I]SP 50 pM, 22° C., 20 minutes. On the procedure:
To the longitudinal muscles, 20 times of the wet weight of the buffer solution (1) (50 mM tris-HCl buffer solution containing 2 mM MgCl2 and 0.1 mM phenyl methyl sulfonyl-fluoride, pH 7.4) was added. The mixture was homogenized under ice-cooling and centrifuged at 48,000×G for 15 minutes. After removing the supernatant, the pellets were re-suspended in the buffer solution (1) and centrifuged at 48,000×G for 15 minutes. The buffer solution (2) (50 mM tris.HCl buffer solution containing 10 mM ethylenediaminetetraacetic acid and 300 mM KCl, pH 7.4) was added to the pellets and suspended to be reacted under ice-cooling for 60 minutes. The resulted reaction materials were centrifuged at 48,000×G for 15 minutes. After suspending the pellets in the buffer solution (1) and distributing, the mixture were centrifuged at 48,000×G for 15 minutes. The pellets were stored at -80° C. until used as receptor samples.
Thus obtained receptor samples were suspended in 50 mM tris-HCl buffer solution to be used. As the buffer solution, binding buffer solution (tris.HCl buffer solution containing 0.02% bovine serum albumin, 40 μg/ml bacitracin, 4 μg/ml chymostatin, 4 μg/ml leupeptin and 3 mM MnCl2, pH7.4) was used.

In assay [2] the test system is Substance P (guinea pig ileum). The assay is described as follows: Bioassay test: Substance P-induced contraction of guinea pig ileum strips. The following applies: 10^-7 M compound; contraction by 10^-8 M Substance P regarded as 100%. On the procedure:
B. Bioassay Test […] After exsanguinating guinea pigs (body weight: 500-600 g) deadly, ileum was removed and 2 cm of ileum strips were prepared. In a Tyrode's solution (10 ml, 37° C.) in which air is passed, containing 5.2 μM atropine and 4.1 μM indomethacin, the strips having 0.5 g resting tension was suspended, and contractions of muscle were recorded on a recording device (RTA-1200, manufactured by Nihon Kohden) via an isotonic transducer (TB-612T, manufactured by Nihon Kohden). Using three specimens per one group, effects of the subject drugs on the muscle contraction caused by 10^-8 M Substance P were determined.

The subject of a further assay is Substance P. The assay is described as follows: Antagonism test on Substance P-induced airway edema. Type of assay: in vivo, guinea pig (hartley male). Conditions: Cavia porcellus, po, read-out: Inhibition Rate (airway edema, dye transudated into trachea and main bronchi). On the procedure: C. Antagonism Test on Substance P-induced Airway Edema
20 mg/kg of Evans' Blue and 1 nm/kg Substance P containing 200 I.U./kg of heparin were administered intravenously to hartley male guinea pigs in order to induce airway edema. After ten minutes, the guinea pigs were exsanguinated deadly. The amounts of the dye transudated into trachea and main bronchi were determined. 1 mg/kg of the subject compounds were administered orally at thirty minutes before the induction. […] Further, for comparison, the following compounds A and B were used.

Setting [3] is: 1 mg/kg orally, thirty minutes before induction, compared to the control group.

T1 sequence (P30547 whole entry): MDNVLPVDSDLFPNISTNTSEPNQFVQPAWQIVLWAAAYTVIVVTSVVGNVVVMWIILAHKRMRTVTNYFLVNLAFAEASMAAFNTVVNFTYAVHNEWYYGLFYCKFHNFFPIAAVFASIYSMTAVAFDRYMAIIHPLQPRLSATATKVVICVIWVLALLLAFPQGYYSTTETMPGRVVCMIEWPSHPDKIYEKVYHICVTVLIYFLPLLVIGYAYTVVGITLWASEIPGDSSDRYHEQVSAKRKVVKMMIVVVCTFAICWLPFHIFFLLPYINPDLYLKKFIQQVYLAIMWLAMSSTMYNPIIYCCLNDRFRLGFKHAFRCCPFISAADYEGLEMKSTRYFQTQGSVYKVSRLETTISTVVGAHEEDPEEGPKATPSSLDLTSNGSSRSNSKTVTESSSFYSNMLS

Broadly, the inhibition is how much of the control response was suppressed. Compound `Cc1ccc(CN[C@H]2CCCN[C@H]2c2ccccc2)c2c1CC(C)(C)O2` [Example 16, (2S,3S)-3-[2,2,4-trimethyl-2,3-dihydrobenzofuran-7-yl)methyl]amino-2-phenylpiperidine hydrochloride] returned an inhibition at 0.01 µM in assay [1] of 82.5%. Further, in assay [2], the “Contriction Inhibition” value came to 78.3%.
`CC1(C)Cc2cc(Cl)cc(CN[C@H]3CCCN[C@H]3c3ccccc3)c2O1.Cl` [Example 11, (2S,3S)-3-[(5-chloro-2,2-dimethyl-2,3-dihydrobenzofuran-7-yl)methyl]amino-2-phenylpiperidine hydrochloride] yielded an inhibition at 0.01 µM in assay [1] of 85.8%. For the same compound, the “Contriction Inhibition” value in assay [2] stood at 58.2%.
Compound `CC1(C)Cc2cc(S(C)(=O)=O)cc(CN[C@H]3CCCN[C@H]3c3ccccc3)c2O1.Cl` [Example 6, (2S,3S)-3-[(2,2-dimethyl-5-methylsulfonyl-2,3-dihydrobenzofuran-7-yl)methyl]amino-2-phenylpiperidine hydrochloride] displayed an inhibition at 0.01 µM in assay [1] of 74.8%. The “Contriction Inhibition” value in assay [2] came to 50.9%.
Take `CC1Oc2c(CN[C@H]3CCCN[C@H]3c3ccccc3)cccc2C1C.Cl` (stereo partly drawn) [Example 20, (2S,3S)-3-[(2,3-dimethyl-2,3-dihydrobenzofuran-7-yl)methyl]amino-2-phenylpiperidine hydrochloride]: 0.01 µM produced 65% inhibition in assay [1]. Moreover, the “Contriction Inhibition” value in assay [2] is given as 38.9%.
On the same counts, the results for `Cl.c1ccc([C@@H]2NCCC[C@@H]2NCc2cccc3c2OCC3)cc1` [Example 13, (2S,3S)-3-[(2,3-dihydrobenzofuran-7-yl)methyl]amino-2-phenylpiperidine hydrochloride] are 84.7% and 47.4%.
Turning to `Cc1ccc(CN[C@H]2CCCN[C@H]2c2ccccc2)c2c1C(C)C(C)O2.Cl` (stereo partly drawn) [Example 21, (2S,3S)-3-[(2,3,4-trimethyl-2,3-dihydrobenzofuran-7-yl)methyl]amino-2-phenylpiperidine hydrochloride], the inhibition at 0.01 µM in assay [1] stood at 53.1%. The “Contriction Inhibition” value in assay [2] is reported as 13.4%.
Take `CC1Cc2cccc(CN[C@H]3CCCN[C@H]3c3ccccc3)c2O1.Cl` (single isomer, unassigned) [Example 3]: the “Contriction Inhibition” value in assay [2] stood at 93.2%.
`CN(C)S(=O)(=O)c1cc(CN[C@H]2CCCN[C@H]2c2ccccc2)c2c(c1)CC(C)(C)O2.Cl` [Example 7, (2S,3S)-3-[(2,2-dimethyl-5-dimethylaminosulfonyl-2,3-dihydrobenzofuran-7-yl)methyl]amino-2-phenylpiperidine hydrochloride] gave an inhibition at 0.01 µM in assay [1] of 54%. The “Contriction Inhibition” value in assay [2] came out at 15.0%.
On the same counts, the results for `CC1(C)Cc2cc([N+](=O)[O-])cc(CN[C@H]3CCCN[C@H]3c3ccccc3)c2O1.Cl` [Example 4, (2S,3S)-3-[(2,2-dimethyl-5-nitro-2,3-dihydrobenzofuran-7-yl)methyl]amino-2-phenylpiperidine hydrochloride] are 89.7% and 60.2%.
The corresponding values for `CC1Cc2cc(Cl)cc(CN[C@H]3CCCN[C@H]3c3ccccc3)c2O1.Cl` (stereo partly drawn) [Example 14, (2S,3S)-3-[(5-chloro-2-methyl-2,3-dihydrobenzofuran-7-yl)methyl]amino-2-phenylpiperidine hydrochloride] are 93.5% and 92.3%.
The corresponding values for `c1ccc([C@@H]2NCCC[C@@H]2NCc2cccc3c2OCCC3)cc1` [Example 10, (2S,3S)-3-[(3,4-dihydro-1,2-benzopyran-8-yl)methyl]amino-2-phenylpiperidinehydrochloride] are 86.2% and 61.8%.
As to `Cc1cc(CN[C@H]2CCCN[C@H]2c2ccccc2)c2c(c1)CC(C)(C)O2.Cl` [Example 17, (2S,3S)-3-[(2,2,5-trimethyl-2,3-dihydrobenzofuran-7-yl)methyl]amino-2-phenylpiperidine hydrochloride], at 0.01 µM the inhibition in assay [1] was 94.2%. In addition, the “Contriction Inhibition” value in assay [2] came to 94.6%.
As to `CC1(C)Cc2cccc(CN[C@H]3CCCN[C@H]3c3ccccc3)c2O1.Cl` [Example 2, (2S,3S)-3-[(2,2-dimethyl-2,3-dihydrobenzofuran-7-yl)methyl]amino-2-phenylpiperidine hydrochloride], in assay [1], the inhibition at 0.01 µM was found to be 74.8%. Moreover, the “Contriction Inhibition” value in assay [2] worked out at 47.0%.
Consider `Cl.c1ccc([C@@H]2NCCC[C@@H]2NCc2ccc3c(c2)OCO3)cc1` [Example 9, (2S,3S)-3-(3,4-methylenedioxybenzyl)amino-2-phenylpiperidine hydrochloride], for which the inhibition at 0.01 µM in assay [1] turned out to be 36.6%. Also, in assay [2], the “Contriction Inhibition” value amounted to 5.5%.
Regarding `Cl.c1ccc([C@@H]2NCCC[C@@H]2NCc2ccc3c(c2)OCCO3)cc1` [Example 19, (2S,3S)-3-(3,4-ethylenedioxybenzyl)amino-2-phenylpiperidine hydrochloride], in assay [1], testing at 0.01 µM gave an inhibition of 48.7%. Moreover, in assay [2], the “Contriction Inhibition” value came out at 22.1%.
On the same counts, the results for `CSc1cc(CN[C@H]2CCCN[C@H]2c2ccccc2)c2c(c1)CC(C)(C)O2.Cl` [Example 5, (2S,3S)-3-[(2,2-dimethyl-5-methylthio-2,3-dihydrobenzofuran-7-yl)methyl]amino-2-phenylpiperidine hydrochloride] are 91.8% and 80.5%.
On the same counts, the results for `COc1cc(CN[C@H]2CCCN[C@H]2c2ccccc2)c2c(c1)CC(C)(C)O2` [Example 12, (2S,3S)-3-[(2,2-dimethyl-5-methoxy-2,3-dihydrobenzofuran-7-yl)methyl]amino-2-phenylpiperldine hydrochloride] are 82.2% and 43.0%.
`CC(C)(C)c1cc2c(c(CN[C@H]3CCCN[C@H]3c3ccccc3)c1)OCC2.Cl` [Example 24, (2S,3S)-3-[(5-tert-butyl-2,3-dihydrobenzofuran-7-yl)methyl]amino-2-phenylpiperidine hydrochloride]: at 0.01 µM the inhibition in assay [1] was 50.3%. For the same compound, in assay [2], the “Contriction Inhibition” value is reported as 69.5%. Also, the inhibition in vivo at 1 mg/kg in the assay on Substance P (setting [3]) is 64%.
In turn, `Cl.c1ccc([C@@H]2NCCC[C@@H]2NCc2cc(C3CCCCC3)cc3c2OCC3)cc1` [Example 26, (2S,3S)-3-[(5-cyclohexyl-2,3-dihydrobenzofuran-7-yl)methyl]amino-2-phenylpiperidine hydrochloride] registered an inhibition at 0.01 µM in assay [1] of 56.4%. Besides, the “Contriction Inhibition” value in assay [2] was 62.1%. Moreover, the inhibition in vivo at 1 mg/kg in the assay with Substance P (setting [3]) worked out at 61%.
`CC1(C)Cc2c(Cl)ccc(CN[C@H]3CCCN[C@H]3c3ccccc3)c2O1.Cl` [Example 18, (2S,3S)-3-[(4-chloro-2,2-dimethyl-2,3-dihydrobenzofuran-7-yl)methyl]amino-2-phenylpiperidine hydrochloride] displayed an inhibition at 0.01 µM in assay [1] of 89.9%. Besides, the “Contriction Inhibition” value in assay [2] was found to be 81.2%.
For `COc1cc(CN[C@H]2CCCN[C@H]2c2ccccc2)c2c(c1)CC(C)O2.Cl` (stereo partly drawn) [Example 15, (2S,3S)-3-[(5-methoxy-2-methyl-2,3-dihydrobenzofuran-7-yl)methyl]amino-2-phenylpiperidine hydrochloride], the inhibition at 0.01 µM in assay [1] stood at 88.1%. Further, the “Contriction Inhibition” value in assay [2] came to 75.2%.
In turn, `CC1Cc2cccc(CN[C@H]3CCCN[C@H]3c3ccccc3)c2O1.Cl` (single isomer, unassigned) [Example 3, hydrochloride] had an inhibition at 0.01 µM in assay [1] of 96%.
On to `COc1ccc(OC(F)(F)F)cc1CN[C@H]1CCCN[C@H]1c1ccccc1` [Compound B, (2S,3S)-3-(2-methoxy-5-trifluoromethoxybenzyl)amino-2-phenylpiperidine hydrochloride, reference compound], for which the inhibition in vivo at 1 mg/kg in the assay with Substance P is 44%.
In assay [1], `CC1Cc2cc(S(=O)(=O)N(C)C)cc(CN[C@H]3CCCN[C@H]3c3ccccc3)c2O1` (stereo partly drawn) [Example 8, (2S,3S)-3-[(5-dimethlaminosulfonyl-2-methyl-2,3-dihydrobenzofuran-7-yl)methyl]amino-2-phenylpiperidine hydrochloride] returned an inhibition at 0.01 µM of 92%. Further, the “Contriction Inhibition” value in assay [2] is given as 85.0%.
